Results: patent US20230278972A1, “SUBSTITUTED HALOALKYL SULFONANILIDE HERBICIDES” (FMC Corporation, priority 2020, published 2023)

Key:
Format in all cases: in vivo
[1] = system: barnyardgrass (Echinochloa crus-galli); assay: Test A preemergence, barnyardgrass; details: Preemergence; for Barnyardgrass plant response rating: visual injury on 0 to 100 scale (0 no effect, 100 complete control), approximately 10 days; for Plant response rating, Barnyardgrass: 0 to 100 scale (0 no effect, 100 complete control)
Outline: (§1)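 Formulated with a surfactant in a non-phytotoxic solvent, compounds are applied to loam–sand pots, either to bare soil immediately after seeding (preemergence) or to seedlings of 2 to 10 cm bearing one to two leaves (postemergence).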

[2] = system: kochia (Bassia scoparia); assay: Test A preemergence, kochia; details: Preemergence; for Kochia plant response rating: visual injury on 0 to 100 scale (0 no effect, 100 complete control), approximately 10 days; for Plant response rating, Kochia: 0 to 100 scale (0 no effect, 100 complete control)
Outline: as §1

[3] = system: ragweed (common ragweed, Ambrosia artemisiifolia); assay: Test A preemergence, ragweed; details: Preemergence; for Ragweed plant response rating: visual injury on 0 to 100 scale (0 no effect, 100 complete control), approximately 10 days; for Plant response rating, Ragweed: 0 to 100 scale (0 no effect, 100 complete control)
Outline: as §1

[4] = system: Ryegrass, Italian (Italian ryegrass, Lolium multiflorum); assay: Test A preemergence, Ryegrass, Italian; details: Preemergence; for Ryegrass, Italian plant response rating: visual injury on 0 to 100 scale (0 no effect, 100 complete control), approximately 10 days; for Plant response rating, Ryegrass, Italian: 0 to 100 scale (0 no effect, 100 complete control)
Outline: as §1

[5] = system: Foxtail, Giant (giant foxtail, Setaria faberi); assay: Test A preemergence, Foxtail, Giant; details: Preemergence; for Foxtail, Giant plant response rating: visual injury on 0 to 100 scale (0 no effect, 100 complete control), approximately 10 days; for Plant response rating, Foxtail, Giant: 0 to 100 scale (0 no effect, 100 complete control)
Outline: as §1

[6] = system: pigweed (Amaranthus retroflexus); assay: Test A preemergence, pigweed; details: for Pigweed plant response rating: visual injury on 0 to 100 scale (0 no effect, 100 complete control), approximately 10 days; for Plant response rating, Pigweed: 0 to 100 scale (0 no effect, 100 complete control)
Outline: (§2)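 Greenhouse pot test in a loam–sand blend; compounds delivered in a non-phytotoxic solvent carrying a surfactant, applied either as a directed spray to soil at seeding or over seedlings 2 to 10 cm high with one to two leaves.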

[7] = system: barnyardgrass (Echinochloa crus-galli); assay: Test A postemergence, barnyardgrass; details: Postemergence, 0 to 100 scale (0 no effect, 100 complete control); for Barnyardgrass plant response rating: visual injury vs untreated controls after approx. 10 days
Outline: as §2

[8] = system: kochia (Bassia scoparia); assay: Test A postemergence, kochia; details: Postemergence; for Kochia plant response rating: visual injury vs untreated controls after approx. 10 days
Outline: as §1

[9] = system: ragweed (common ragweed, Ambrosia artemisiifolia); assay: Test A postemergence, ragweed; details: Postemergence; for Ragweed plant response rating: visual injury vs untreated controls after approx. 10 days
Outline: as §1

[10] = system: Ryegrass, Italian (Italian ryegrass, Lolium multiflorum); assay: Test A postemergence, Ryegrass, Italian; details: Postemergence; for Ryegrass, Italian plant response rating: visual injury vs untreated controls after approx. 10 days
Outline: as §1

[11] = system: Foxtail, Giant (giant foxtail, Setaria faberi); assay: Test A postemergence, Foxtail, Giant; details: Postemergence; for Foxtail, Giant plant response rating: visual injury vs untreated controls after approx. 10 days
Outline: as §1

[12] = system: pigweed (Amaranthus retroflexus); assay: Test A postemergence, pigweed; details: Postemergence; for Pigweed plant response rating: visual injury vs untreated controls after approx. 10 days
Outline: as §1

[13] = system: wheat (Triticum aestivum); assay: Test A postemergence, wheat; details: Postemergence; for Wheat plant response rating: visual injury vs untreated controls after approx. 10 days
Outline: as §2

[14] = system: corn (Zea mays); assay: Test A postemergence, corn; details: Postemergence; for Corn plant response rating: visual injury vs untreated controls after approx. 10 days
Outline: as §1

[15] = system: blackgrass (Alopecurus myosuroides); assay: Test A postemergence, blackgrass; details: Postemergence, 0 to 100 scale (0 no effect, 100 complete control); for Blackgrass plant response rating: visual injury vs untreated controls after approx. 10 days
Outline: as §1

[16] = system: galium (catchweed bedstraw, Galium aparine); assay: Test A postemergence, galium; details: Postemergence; for Galium plant response rating: visual injury vs untreated controls after approx. 10 days
Outline: as §2

[17] = 125 g ai/ha, visual injury approx. 10 days
[18] = 500 g ai/ha, visual injury, approx. 10 days
[19] = 125 g ai/ha, visual injury approx. 10 days, 0 to 100 scale (0 no effect, 100 complete control)
[20] = 500 g ai/ha, visual injury, 0 to 100 scale (0 no effect, 100 complete control), approx. 10 days
[21] = 125 g ai/ha, visual injury, approx. 10 days
[22] = 125 g ai/ha, 0 to 100 scale (0 no effect, 100 complete control)
[23] = 500 g ai/ha, 0 to 100 scale (0 no effect, 100 complete control)
[24] = 31 g ai/ha, visual injury, approx. 10 days
[25] = 31 g ai/ha, visual injury on 0 to 100 scale (0 no effect, 100 complete control), approx. 10 days

Cc1cc(Cl)c(NS(=O)(=O)C(F)(F)F)cc1C(=O)N1CCC(C#N)CC1 [Compound 17]
100: Barnyardgrass plant response rating ([1]; 125 g ai/ha) | Plant response rating, Barnyardgrass ([1]; 500 g ai/ha) | Plant response rating, Ryegrass, Italian ([4]; 500 g ai/ha) | Foxtail, Giant plant response rating ([5]; 125 g ai/ha) | Plant response rating, Foxtail, Giant ([5]; 500 g ai/ha) | Plant response rating, Pigweed ([6]; 500 g ai/ha)
80: Ragweed plant response rating ([3]; 125 g ai/ha) | Plant response rating, Ragweed ([3]; 500 g ai/ha) | Ryegrass, Italian plant response rating ([4]; 125 g ai/ha) | Plant response rating, Ragweed [9, 19] | Plant response rating, Galium [16, 19]
90: Plant response rating, Kochia ([2]; 500 g ai/ha) | Pigweed plant response rating ([6]; 125 g ai/ha) | Plant response rating, Barnyardgrass [7, 18] | Plant response rating, Ragweed [9, 20] | Plant response rating, Foxtail, Giant [11, 19] | Plant response rating, Foxtail, Giant [11, 20] | Plant response rating, Galium [16, 20]
0: Plant response rating, Ryegrass, Italian [10, 19] | Plant response rating, Blackgrass [15, 17]
60: Plant response rating, Kochia [8, 19] | Plant response rating, Pigweed [12, 19] | Plant response rating, Wheat [13, 20]
30: Plant response rating, Barnyardgrass [7, 17] | Plant response rating, Blackgrass [15, 18]
10: Plant response rating, Corn [14, 19]
70: Kochia plant response rating ([2]; 125 g ai/ha) | Plant response rating, Kochia [8, 20] | Plant response rating, Ryegrass, Italian [10, 20] | Plant response rating, Pigweed [12, 20] | Plant response rating, Wheat [13, 19]
20: Plant response rating, Corn [14, 20]

Cc1cc(F)c(C(=O)N2CC(C)OC(C)C2)cc1NS(=O)(=O)C(F)(F)F (centres unmarked) [Compound 238]
70: Ryegrass, Italian plant response rating [10, 23] | Foxtail, Giant plant response rating [11, 23] | Wheat plant response rating [13, 23]
60: Kochia plant response rating ([2]; 500 g ai/ha) | Plant response rating, Ryegrass, Italian [4, 21] | Foxtail, Giant plant response rating ([5]; 500 g ai/ha) | Barnyardgrass plant response rating ([7]; 500 g ai/ha) | Plant response rating, Ragweed [9, 22] | Plant response rating, Wheat [13, 22]
20: Plant response rating, Ragweed [3, 21] | Plant response rating, Pigweed [6, 21] | Plant response rating, Kochia [8, 22]
90: Ragweed plant response rating ([3]; 500 g ai/ha) | Ryegrass, Italian plant response rating ([4]; 500 g ai/ha)
80: Plant response rating, Kochia [2, 21] | Pigweed plant response rating ([6]; 500 g ai/ha) | Ragweed plant response rating [9, 23] | Pigweed plant response rating [12, 23] | Plant response rating, Galium [16, 22] | Galium plant response rating [16, 23]
0: Plant response rating, Barnyardgrass [1, 21] | Plant response rating, Barnyardgrass ([1]; 500 g ai/ha) | Plant response rating, Barnyardgrass ([7]; 125 g ai/ha) | Plant response rating, Corn [14, 22] | Corn plant response rating [14, 23] | Plant response rating, Blackgrass ([15]; 125 g ai/ha)
30: Plant response rating, Foxtail, Giant [5, 21] | Kochia plant response rating [8, 23] | Plant response rating, Ryegrass, Italian [10, 22] | Plant response rating, Foxtail, Giant [11, 22] | Plant response rating, Pigweed [12, 22] | Blackgrass plant response rating ([15]; 500 g ai/ha)

COC(=O)N(c1cc(C(=O)N2CCCC(OC)C2)c(C)cc1C)S(=O)(=O)C(F)(F)F (centres unmarked) [Compound 115]
0: Plant response rating, Kochia [2, 24] | Plant response rating, Ragweed [3, 24] | Plant response rating, Ryegrass, Italian [10, 25] | Plant response rating, Foxtail, Giant [11, 25] | Plant response rating, Corn [14, 25] | Plant response rating, Corn [14, 19] | Plant response rating, Blackgrass ([15]; 31 g ai/ha) | Plant response rating, Blackgrass [15, 17]
100: Barnyardgrass plant response rating ([1]; 125 g ai/ha) | Plant response rating, Foxtail, Giant [5, 24] | Foxtail, Giant plant response rating ([5]; 125 g ai/ha) | Plant response rating, Pigweed [6, 24]
50: Plant response rating, Barnyardgrass [1, 24] | Plant response rating, Barnyardgrass [7, 17] | Plant response rating, Ragweed [9, 19]
30: Plant response rating, Kochia [8, 19] | Plant response rating, Ragweed [9, 25] | Plant response rating, Foxtail, Giant [11, 19] | Plant response rating, Pigweed [12, 25]
20: Ragweed plant response rating ([3]; 125 g ai/ha) | Plant response rating, Kochia [8, 25]
80: Plant response rating, Galium [16, 25]
10: Plant response rating, Barnyardgrass ([7]; 31 g ai/ha)
40: Kochia plant response rating ([2]; 125 g ai/ha) | Plant response rating, Ryegrass, Italian [10, 19] | Plant response rating, Wheat [13, 25]
70: Plant response rating, Ryegrass, Italian [4, 24]
60: Plant response rating, Pigweed [12, 19] | Plant response rating, Wheat [13, 19]
90: Ryegrass, Italian plant response rating ([4]; 125 g ai/ha) | Pigweed plant response rating ([6]; 125 g ai/ha) | Plant response rating, Galium [16, 19]

Cc1cc(C)c(N(S(=O)(=O)C(F)(F)F)S(=O)(=O)C(F)(F)F)cc1C1=NOC2(CCC(C)(C)CC2)C1 [Compound 139]
0: Barnyardgrass plant response rating ([1]; 125 g ai/ha) | Kochia plant response rating ([2]; 125 g ai/ha) | Ragweed plant response rating ([3]; 125 g ai/ha) | Foxtail, Giant plant response rating ([5]; 125 g ai/ha) | Plant response rating, Barnyardgrass [7, 17] | Barnyardgrass plant response rating ([7]; 500 g ai/ha) | Plant response rating, Kochia [8, 19] | Plant response rating, Ragweed [9, 22] | Ragweed plant response rating [9, 23] | Plant response rating, Ryegrass, Italian [10, 22] | Ryegrass, Italian plant response rating [10, 23] | Plant response rating, Foxtail, Giant [11, 19] | Foxtail, Giant plant response rating [11, 23] | Plant response rating, Wheat [13, 22] | Wheat plant response rating [13, 23] | Plant response rating, Corn [14, 19] | Corn plant response rating [14, 23] | Plant response rating, Blackgrass [15, 17] | Blackgrass plant response rating ([15]; 500 g ai/ha)
40: Plant response rating, Pigweed [12, 22]
30: Plant response rating, Barnyardgrass ([1]; 500 g ai/ha) | Plant response rating, Ragweed ([3]; 500 g ai/ha)
20: Plant response rating, Foxtail, Giant ([5]; 500 g ai/ha) | Pigweed plant response rating ([6]; 125 g ai/ha)
60: Plant response rating, Kochia ([2]; 500 g ai/ha)
70: Plant response rating, Ryegrass, Italian ([4]; 500 g ai/ha) | Plant response rating, Pigweed ([6]; 500 g ai/ha)
50: Ryegrass, Italian plant response rating ([4]; 125 g ai/ha) | Kochia plant response rating [8, 23] | Plant response rating, Galium [16, 19]
80: Pigweed plant response rating [12, 23] | Galium plant response rating [16, 23]
